According to patent publication US9085761B1, “Methods and compositions for amplification of nucleic acids” (Affymetrix, Inc., priority 2012, dated 2015):

Assays:
Taq DNA Polymerase = molecular target: T1, Taq DNA Polymerase (Thermus aquaticus, UniProt P19821); assay: PCR amplification of a 455 bp human numb target with Taq DNA Polymerase in the presence of surfactant, product seen on agarose gel; type: biochemical; conditions: for PCR product of the expected size: FIG. 1, diluted Taq with 0.00011% Tween-20 and NP-40 carry-over; for Function: Table 1 summary: surfactants or blocked co-polymers that worked in the assay used and those that did not
T1 construct: made in house
T1 sequence (P19821 whole entry): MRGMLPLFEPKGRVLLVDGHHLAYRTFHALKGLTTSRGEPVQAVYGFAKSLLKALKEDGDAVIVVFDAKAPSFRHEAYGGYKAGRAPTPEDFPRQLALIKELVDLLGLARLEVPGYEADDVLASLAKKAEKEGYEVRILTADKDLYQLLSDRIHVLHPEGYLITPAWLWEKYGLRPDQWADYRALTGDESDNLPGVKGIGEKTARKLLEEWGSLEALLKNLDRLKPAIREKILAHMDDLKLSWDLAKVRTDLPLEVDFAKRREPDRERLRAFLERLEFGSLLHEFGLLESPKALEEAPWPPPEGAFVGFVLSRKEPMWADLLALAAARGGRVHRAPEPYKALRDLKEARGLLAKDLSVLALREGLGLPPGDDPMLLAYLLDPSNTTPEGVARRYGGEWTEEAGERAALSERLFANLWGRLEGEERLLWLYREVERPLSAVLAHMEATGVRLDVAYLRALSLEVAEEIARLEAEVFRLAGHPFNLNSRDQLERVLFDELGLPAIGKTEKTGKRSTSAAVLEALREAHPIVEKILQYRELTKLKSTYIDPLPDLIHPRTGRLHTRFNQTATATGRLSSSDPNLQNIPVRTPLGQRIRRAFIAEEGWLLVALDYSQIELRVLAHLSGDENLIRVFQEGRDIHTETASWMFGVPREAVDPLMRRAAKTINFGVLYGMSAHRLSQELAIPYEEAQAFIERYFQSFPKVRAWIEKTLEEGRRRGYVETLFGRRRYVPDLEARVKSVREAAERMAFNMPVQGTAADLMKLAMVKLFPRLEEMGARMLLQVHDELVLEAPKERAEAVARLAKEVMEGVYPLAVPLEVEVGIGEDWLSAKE
Description: In order to test the efficacy of detergents on Taq DNA Polymerase, a stock of Taq DNA Polymerase at a base concentration of 111 units/ul was diluted to 5 units/ul in a storage buffer that lacked detergents. The standard Taq DNA Polymerase storage buffer has 0.5% Tween-20 and 0.5% NP-40. In this example 0.625 units of Taq were added per 25 ul reaction, so that represents a change in final detergent concentration of 0.0025% each detergent to 0.00011% of each. A 455 bp single-copy target from the human numb gene was PCR-amplified from 1 ng human genomic DNA in a 25 ul reaction with 0.625 units of the diluted Taq DNA polymerase. The cycling conditions were 95° C. for 2 minutes; 35 cycles of 95° C. for 10 seconds, 55° C. for 20 seconds, and 72° C. for 30 seconds; 72° C. for 5 minutes; and 10° C. until required. An aliquot of 10 ul was run on a 1.5% agarose/ethidium bromide gel.
In FIG. 1, the results of the initial screen of several non-ionic and zwitterionic detergents are shown. In this example there is residual Tween-20 and NP-40 in the enzyme storage buffer. The concentrations of surfactants listed are the final concentration of that surfactant in the assay. All conditions in the example, including the “no detergent” condition, have 0.00011% Tween-20 and 0.00011% NP-40 resulting from carry-over from the enzyme storage buffer. […] As expected Tween-20 and NP-40 worked when present at 0.01% and 0.1%. […] A0-12-2 worked at 0.01% and PEO(10)SAP worked at 0.01, 0.1 and 1%. It is clear that in addition to the standard non-ionic detergents with PEOn, a zwitterionic or ylide with that polymer will also contribute to PCR product generation.
Because a small amount of Tween-20 and NP-40 was carried over in the previous experiment, Taq DNA Polymerase was purified without the addition of detergents after the lysis step to provide a “detergent-free” Taq for use in the next example. The previous numb target and reaction conditions were used with 0.625 units of Taq per reaction.
To further test the effectiveness of PEOn-derivatives, the denaturation temperature was changed from 95° C. to 98° C. in the cycling protocol. This increase in temperature adds additional stress to the function of Taq DNA Polymerase. A selection of PLURONIC® and TETRONIC® surfactants were tested (labels in the figures are abbreviated, for example, “T908” refers to TETRONIC® 908 and “P F87” refers to PLURONIC® F87). In addition, TETRONIC® 904 and 1107 were modified to amine-oxide, forms and then tested.

[1] = test system: thermostable DNA polymerase; assay: Evaluation of protecting groups for reversible modification (hot-start inactivation) of thermostable polymerase; type: biochemical; conditions: reactivity tested in Tris pH 8 or Tricine pH 8.8
Description: Three classes of protecting groups were evaluated: 2,3-substituted maleic anhybrides, alpha-activated compounds that can undergo beta-elimination and molecules that can undergo intramolecular cyclic displacement or assisted elimination. The experimental compounds had the general structure:
Where Y could be N-hydroxysuccinimide (NHS), p-nitrophenol (pNP), or imidazole and X could be CONMe2, MeSO2, CN, NO2, CO2Me, (CH2)2SMe, N(CH3)CHO, or CH2C(O)CH3. The reactivity was tested in Tris pH 8 or Tricine pH 8.8. Buffer pH measurements are at room temperature (˜25° C.). […]

[2] = Cloud point of surfactant; type: physicochemical; conditions: about 1% detergent concentration in 6×SSPE buffer
Description: In some aspects surfactants are selected for use in the methods because they have a cloud point (temperature at which the solid begins to precipitate and give the fluid a cloudy appearance) greater than or equal to 80° C., greater than or equal to 90° C. and in particularly preferred aspects the cloud point is greater than about 100° C. (in each case when measured at about 1% aqueous). The cloud point is the temperature above which a surfactant solution separates into a detergent rich phase and a detergent poor phase (see, Rosen et al. Surfactants and interfacial Phenomena, ^3rd ed. 2004, Hoboken; John Wiley & Sons, Inc. and Neugebauer, J. M. Detergents: an overview, Methods Enzymol, 1990, 182, p. 239-53). The separation is visualized as turbidity within the solution. An increase in temperature favors micelle formation; the rapid growth of micelles along with intermicellar attraction likely results in the formation of large particles that can precipitate out of solution, thus causing turbidity. This phase separation is reversible upon cooling. […]
The amine oxide detergents of the present invention have higher cloud points than their non-amine oxide counterparts. For example, PEO(10)stearlyamine has a cloud point of 60° C. compared to PEO(10)stearylamine N-oxide's cloud point of greater than 100° C., in both cases when measured at about 1% detergent concentration in 6×SSPE buffer. […]

Compound	PCR product of the expected size (Taq DNA Polymerase; 0.01% surfactant final)	PCR product of the expected size (Taq DNA Polymerase; 0.1% surfactant final)	PCR product of the expected size (Taq DNA Polymerase; 1% surfactant final)	Function (Taq DNA Polymerase)	further results
CCCCCCCCCCCC[N+]([O-])(CCO)CCO [AO-12-2, N,N-Bis(2-hydroxyethyl)laurylamine N-Oxide]	resulted in a product	not	not		PCR product of the expected size (Taq DNA Polymerase; 0.01% surfactant final, listed as A0-12-2): worked
CS(=O)(=O)CCOC(=O)Oc1ccc([N+](=O)[O-])cc1 [MSEC, 2-(Methylsulfonyl)ethyl 4-nitrophenyl carbonate]					effectiveness as reversible modifier of polymerase [1]: most effective
NP 40 [reference compound]	worked	worked		YES	
PEO(10) Stearyl (3-sulfo-propyl)-ammonium [PEO(10) SAPS]				YES	
Polyethoxylated (10) Stearylamine N-Oxide [PE0 (10) SAO]	worked	worked	worked	YES	PCR product (Taq DNA Polymerase; detergent-free Taq DNA Polymerase, FIG. 2, 3, 4): PCR product was observed; cloud point [2]: greater than 100 °C
Polyethoxylated/Polypropoxylated (isodecyloxypropyl)amine N-Oxide [AO-405]					PCR product of the expected size (Taq DNA Polymerase; concentration not given): no visible product
